Test results reported in patent US20050100983A1, “Cell-free methods for identifying compounds that affect toll-like receptor 9 (TLR9) signaling” (Coley Pharmaceutical GmbH, priority 2003, published 2005).
Ends that are not written are not given here. * marks the point of attachment. X1 = 2,3‑bis(palmitoyloxy)‑(2RS)‑propyl, CCCCCCCCCCCCCCCC(=O)OCC(C*)OC(=O)CCCCCCCCCCCCCCC; Palmitoyl = CCCCCCCCCCCCCCCC(=O)*

Legend:
murine TLR9 = test: NF-κB luciferase assay, HEK 293 cells transfected with murine TLR9; format: cell-based; settings: TLR9-transfected HEK 293 cells, 1 μM CpG-DNA, inhibitor added 15 min prior to stimulation
Method: Activation is expressed as fold induction compared to no stimulation. NF-κB luciferase assay. For monitoring transient NF-κB activation, 3×10^6 HEK 293 cells were electroporated at 200 volt and 950 μF with 20 ng of a NF-κB luciferase reporter plasmid (kindly provided by Patrick Baeuerle, Munich, Germany) and 1 μg mTLR2 (kindly provided by Tularik, Inc., South San Francisco, USA), mTLR9, or mTLR9-mut expression plasmid. Cells were seeded at 10^5 cells per well and after overnight culture stimulated with 1 μM phosphorothioated CpG-DNA 1668 (SEQ ID NO:1), 1 μM non-CpG-DNA 1668GC (SEQ ID NO:3), 1 μg/ml Pam[…][…] or 1 μg/ml PHCK4 for further 8 hours. […] Stimulated cells were lysed using reporter lysis buffer (Promega, Mannheim, Germany) and lysates were assayed for luciferase activity using a Berthold luminometer (Wildbad, Germany) according to the manufacturer's instruction.

murine TLR2 = test: NF-κB luciferase assay, HEK 293 cells transfected with murine TLR2; format: cell-based; settings: TLR2-transfected HEK 293 cells, 1 μg/ml Pam3Cys
TLR9-CpG-DNA interaction = target: T1, TLR9-CpG-DNA interaction (Mus musculus, UniProt Q9EQU3); test: SPR biosensor analysis of inhibitors on TLR9-CpG-DNA interaction; format: binding, murine; settings: for inhibition of binding of TLR9 to CpG-DNA: SPR, 200 nM TLR9, immobilized CpG-DNA 1668
T1 construct: mTLR9ect (aa 1-816); made in house
T1 sequence (Q9EQU3 26-816): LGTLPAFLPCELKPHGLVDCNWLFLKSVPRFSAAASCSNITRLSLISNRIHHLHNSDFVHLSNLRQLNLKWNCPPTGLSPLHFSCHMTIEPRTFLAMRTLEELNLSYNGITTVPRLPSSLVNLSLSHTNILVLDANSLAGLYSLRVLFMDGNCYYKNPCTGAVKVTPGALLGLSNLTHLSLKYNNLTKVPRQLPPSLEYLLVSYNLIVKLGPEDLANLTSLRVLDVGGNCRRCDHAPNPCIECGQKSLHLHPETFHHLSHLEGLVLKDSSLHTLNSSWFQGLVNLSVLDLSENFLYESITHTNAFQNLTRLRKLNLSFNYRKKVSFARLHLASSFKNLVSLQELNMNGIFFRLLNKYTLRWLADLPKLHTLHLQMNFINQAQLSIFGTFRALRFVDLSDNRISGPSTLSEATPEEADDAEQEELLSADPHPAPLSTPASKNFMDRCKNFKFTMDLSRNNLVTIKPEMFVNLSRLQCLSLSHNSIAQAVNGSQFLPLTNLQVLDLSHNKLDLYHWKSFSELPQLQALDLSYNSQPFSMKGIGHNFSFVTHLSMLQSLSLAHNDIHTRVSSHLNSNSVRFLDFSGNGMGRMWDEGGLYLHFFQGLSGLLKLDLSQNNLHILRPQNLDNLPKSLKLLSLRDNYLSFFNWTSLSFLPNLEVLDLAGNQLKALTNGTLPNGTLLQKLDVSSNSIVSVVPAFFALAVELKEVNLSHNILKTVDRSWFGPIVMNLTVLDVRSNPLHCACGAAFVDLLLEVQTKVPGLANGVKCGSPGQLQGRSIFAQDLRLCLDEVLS
Method: Biotinylated CpG-DNA 1668 (SEQ ID NO:1) and non-CpG-DNA 1668GC (SEQ ID NO:3) were immobilized on streptavidin sensor chip flow cells 1 and 2, respectively.
FIG. 2B is a graph depicting SPR biosensor analysis of quinoquine (QC) on TLR9-PAMP interaction. Biotinylated CpG-DNA 1668 (SEQ ID NO:1) and non-CpG-DNA 1668GC (SEQ ID NO:3) were immobilized on streptavidin sensor chip flow cells 1 and 2, respectively. 200 nM TLR9 and indicated concentrations of quinoquine were injected and sensorgrams recorded.
SPR biosensor analysis. Real-time binding of TLR9 or TLR2 was measured by surface plasmon resonance biosensor technology using the BiaCore X system (Uppsala, Sweden). For analysis of TLR9 and TLR2 interaction, biotinylated CpG-DNA and non-CpG-DNA, or biotinylated Pam3CysK4 and PHCK4, respectively, were loaded in running buffer (50 mM MES, 150 mM NaCl, 1 mM MgCl2 at pH 6.5) on SA chips precoated with streptavidin (Biacore AB, Uppsala, Sweden). Non-CpG-DNA or PHCK4 (Wiesmuller K H et al. (1989) Vaccine 7:29-33) served as reference for CpG-DNA and Pam3CysK4 interaction (structure or sequence in Table 1). […] TLR proteins were introduced at 200 nM or as indicated in 40 μl running buffer at a flow rate of 10 μl/min. Binding was measured at 25° C. for 750 s (delay time 300 s). […] Sensorgrams were recorded and kinetic data were calculated by the BiaCore Evaluation program (Biacore, version 3.0.1). Regeneration of the chip was performed by injection of 10 μl 50 mM NaOH, 1 M NaCl and extensive re-equilibration.

[1] = target: T2, mTLR2ect (TLR2-Pam3Cys interaction) (Mus musculus, UniProt Q9QUN7); test: SPR biosensor analysis of TLR2-Pam3Cys binding; design: species or system murine; settings: PHC as reference
T2 construct: mTLR2ect (aa 1-587); made in house
T2 sequence (Q9QUN7 25-587): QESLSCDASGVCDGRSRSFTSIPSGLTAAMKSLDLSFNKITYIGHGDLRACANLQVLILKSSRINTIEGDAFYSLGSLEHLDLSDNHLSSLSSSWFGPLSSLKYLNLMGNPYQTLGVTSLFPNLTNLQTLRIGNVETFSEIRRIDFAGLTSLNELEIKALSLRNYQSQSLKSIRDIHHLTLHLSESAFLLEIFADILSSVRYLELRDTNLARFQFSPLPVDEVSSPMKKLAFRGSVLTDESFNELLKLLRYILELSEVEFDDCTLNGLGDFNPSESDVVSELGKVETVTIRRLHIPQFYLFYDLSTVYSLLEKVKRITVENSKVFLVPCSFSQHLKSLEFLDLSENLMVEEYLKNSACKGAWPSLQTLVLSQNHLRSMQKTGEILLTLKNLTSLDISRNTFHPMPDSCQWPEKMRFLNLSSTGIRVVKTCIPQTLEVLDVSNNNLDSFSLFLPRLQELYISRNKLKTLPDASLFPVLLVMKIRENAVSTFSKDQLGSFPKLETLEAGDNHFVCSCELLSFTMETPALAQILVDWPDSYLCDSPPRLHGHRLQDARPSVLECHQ

Binding of TLR2 to Pam3Cys [1] | Compound | inhibition of TLR9-driven NF-κB activation (murine TLR9) | inhibition of Pam3Cys-driven cellular activation (murine TLR2) | inhibition of binding of TLR9 to CpG-DNA (TLR9-CpG-DNA interaction) | inhibition of TLR2-Pam3Cys binding ([1]; 200 nM TLR2, immobilized Pam3Cys) | potency in blocking TLR9-CpG-DNA interaction and cellular activation, compared with chloroquine (TLR9-CpG-DNA interaction; SPR and TLR9-transfected HEK 293 cells)
 | CCN(CC)CCCC(C)Nc1ccnc2cc(Cl)ccc12 (stereo not drawn) [chloroquine] | dose-dependently inhibit | inhibited neither | dose-dependently inhibit |  | 
 | CCN(CC)CCCC(C)Nc1c2ccc(Cl)cc2nc2ccc(OC)cc12 (stereo not drawn) [quinacrine] | dose-dependently inhibit | inhibited neither | dose-dependently inhibit | inhibited neither | more potent
specific | S-(2,3-bis(palmitoyloxy)-(2-RS)-propyl)-N-palmitoyl-(R)-Cys-(S)-Ser-(S)-Lys(4) (Palmitoyl-C(X1)SKKKK; also: biotinylated (site not given here)) [Pam3Cys] |  |  |  |  | 
